From ChEMBL document CHEMBL1955863, “Intramolecular hydrogen bonding: a potential strategy for more bioavailable inhibitors of neuronal nitric oxide synthase” (Bioorg Med Chem, 2012)

Key:
Nitric oxide synthase 1 [1] = biological target: T1, Nitric oxide synthase 1 (Rattus norvegicus, UniProt P29476); experiment: Inhibition of rat nNOS expressed in HEK293T cells preincubated for 30 mins prior A23187-induced activation measured after 6 hrs by Griess assay; type: cell-based, HEK-293T
Nitric oxide synthase 1 [2] = biological target: T1, Nitric oxide synthase 1; experiment: Inhibition of recombinant rat nNOS expressed in Escherichia coli by hemoglobin capture assay
[3] = Selectivity ratio of Ki for bovine eNOS to Ki for rat nNOS
[4] = Selectivity ratio of Ki for mouse iNOS to Ki for rat nNOS

T1 sequence (P29476 whole entry): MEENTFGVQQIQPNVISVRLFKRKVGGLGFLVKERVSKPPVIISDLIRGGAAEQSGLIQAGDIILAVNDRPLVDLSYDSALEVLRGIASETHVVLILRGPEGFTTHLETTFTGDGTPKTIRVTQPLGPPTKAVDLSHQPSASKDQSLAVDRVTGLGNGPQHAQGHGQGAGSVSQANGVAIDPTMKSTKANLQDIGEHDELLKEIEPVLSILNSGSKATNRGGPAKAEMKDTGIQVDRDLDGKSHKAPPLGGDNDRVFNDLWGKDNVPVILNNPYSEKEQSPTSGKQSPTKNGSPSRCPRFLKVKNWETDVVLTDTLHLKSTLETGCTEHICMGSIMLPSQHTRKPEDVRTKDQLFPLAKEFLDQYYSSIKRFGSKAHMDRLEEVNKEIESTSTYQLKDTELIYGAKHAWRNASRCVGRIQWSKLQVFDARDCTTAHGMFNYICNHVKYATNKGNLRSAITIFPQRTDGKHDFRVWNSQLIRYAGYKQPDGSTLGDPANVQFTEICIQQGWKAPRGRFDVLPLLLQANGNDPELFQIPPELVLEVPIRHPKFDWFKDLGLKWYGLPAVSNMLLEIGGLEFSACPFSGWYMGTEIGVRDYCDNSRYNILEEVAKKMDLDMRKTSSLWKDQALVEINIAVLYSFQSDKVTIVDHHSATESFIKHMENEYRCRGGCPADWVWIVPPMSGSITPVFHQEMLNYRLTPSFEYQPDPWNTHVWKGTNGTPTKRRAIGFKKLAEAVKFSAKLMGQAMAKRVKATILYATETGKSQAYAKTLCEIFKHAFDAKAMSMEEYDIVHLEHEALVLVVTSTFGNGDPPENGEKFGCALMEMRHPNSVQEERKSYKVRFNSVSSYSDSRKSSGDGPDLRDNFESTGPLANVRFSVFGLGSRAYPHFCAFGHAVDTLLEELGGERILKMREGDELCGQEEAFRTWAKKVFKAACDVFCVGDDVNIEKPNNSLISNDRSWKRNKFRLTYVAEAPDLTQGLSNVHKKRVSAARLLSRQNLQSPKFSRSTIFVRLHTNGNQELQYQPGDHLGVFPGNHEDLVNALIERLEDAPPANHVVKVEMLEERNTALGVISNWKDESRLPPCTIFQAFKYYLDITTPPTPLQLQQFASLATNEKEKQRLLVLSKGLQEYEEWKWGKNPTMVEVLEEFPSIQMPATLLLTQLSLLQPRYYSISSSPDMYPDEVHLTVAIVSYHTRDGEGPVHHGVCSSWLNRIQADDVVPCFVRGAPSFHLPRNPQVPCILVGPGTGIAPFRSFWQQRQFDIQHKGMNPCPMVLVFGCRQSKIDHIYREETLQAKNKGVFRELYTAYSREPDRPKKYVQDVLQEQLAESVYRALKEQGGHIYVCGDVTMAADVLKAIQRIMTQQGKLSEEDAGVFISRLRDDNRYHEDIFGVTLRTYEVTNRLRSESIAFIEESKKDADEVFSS

Row | SMILES | IC50 (Nitric oxide synthase 1 [1]) [µM] | IC50 (Nitric oxide synthase 1 [2]) [µM] | Ratio Ki [3] | Ratio Ki [4]
1 | Cc1cc(N)nc(C[C@H]2CNC[C@H]2OCCNCc2ccccc2O)c1 | 43 |  | 93 | 143
2 | Cc1cc(N)nc(C[C@H]2CNC[C@H]2OCCNCc2ccccc2F)c1 | 11 |  | 98 | 105
3 | COc1ccccc1CNCCO[C@@H]1CNC[C@@H]1Cc1cc(C)cc(N)n1 | 22 |  | 93 | 139

Second part, the compound after the results:

Row | IC50 (Nitric oxide synthase 1 [1]) [µM] | IC50 (Nitric oxide synthase 1 [2]) [µM] | Ratio Ki [3] | Ratio Ki [4] | SMILES
4 | 25 | 0.05 |  |  | Cc1cc(C)nc(N)c1
5 | 100 |  | 169 | 92 | Cc1cc(N)nc(C[C@H]2CNC[C@H]2OCCNCc2ccco2)c1
